{"source": "patent US12268682B2", "about": "“Anticancer drug FL118 formulation for treatment of human cancer” (CANGET BIOTEKPHARMA, LLC, priority 2019, dated 2025)", "key": {"[1]": {"tested_on": "control genes (p21cip1/waf1, dihydrofolate reductase, human thrombin receptor, thymidine kinase)", "conditions": "cited from earlier work"}, "UM9 cell line": {"tested_on": "UM9 cell line", "assay": "BLI-based cytotoxicity assay with CAR T-cells or CTL 3AB11 on UM9", "assay_type": "cell-based, human", "source_text": "CD138-, BCMA- and CD38-specific CAR T-cells: All CAR T-cells with different specificities were generated with co-stimulatory domains 4-1BB, CD28, or CD28 supplemented with a separate 4-1BB ligand (28zBBL), with the technology as described previously (Kim J H, et al. PLoS One. 2011, 6:e18556; Drent E, et al. Clin Cancer Res. 2019, 25:4014-4025). CD138 CAR T-cells (nBT) were produced using single chain variable fragment (scFv) sequences of the published nBT062 monoclonal antibody (Ikeda H, et al. Clin Cancer Res. 2009, 15:4028-4037). BCMA CAR T-cells were produced using published scFv sequences derived from C11D5.3 monoclonal antibody (US2012/0082661 A1 (Shancer Z, et al. Antib Ther. 2018, 1:19-25) or from BCMA02 CAR (product name bb2121, WO 2016/094304 A2) (Raje N, et al. N Engl J Med. 2019, 380:1726-1737; Friedman K M, et al. Hum Gene Ther. 2018, 29:585-601). The generation and functional analysis of CD38 CAR T-cells with low (B1) or high (028) CD38-affinities has been described previously (Drent E, et al. Clin Cancer Res. 2019, 25:4014-4025; Drent E, et al. Mol Ther. 2017, 25:1946-1958). More detailed information on all CAR construct are listed in Table 1. CAR T-cells were tested 10-14 days after CAR transduction or frozen until testing. After thawing, CAR T-cells were cultured for 16 hours in 60 U/mL recombinant human IL-2 (R&D Systems)-containing culture medium (RPMI 1640 supplemented with heat-inactivated FBS (Sigma) and antibiotics), before using in experiments. Flow cytometry analysis, to determine the transduction efficiency and phenotypic profile of each CAR T-cell, was performed as previously described (Drent E, et al. Clin Cancer Res. 2019, 25:4014 4025; Drent E, et al. Mol Ther. 2017, 25:1946-1958) and illustrated in FIG. 10.\n3AB11 was expanded using a feeder cell-cytokine mixture and cryopreserved until further use as described previously (Spaapen R, et al. Clin Cancer Res. 2007, 13:4009-4015)."}, "primary MM cells": {"tested_on": "primary MM cells", "assay": "Flow cytometry-based ex vivo assay using BMMNCs from MM patients", "assay_type": "cell-based, human", "experimental": "Flow cytometry-based […] assays using BMMNCs: Cryopreserved BMMNCs derived from MM patients were incubated on a monolayer of 2×10^4 BMMSCs for 16 till 24 hours and subsequently treated with FL118 ([…]) and/or, melphalan (5-10 μM/L), bortezomib (2-3 nmol/L) for 48 hours. Concerning immunotherapy, treatment included FL118 (10 or 100 nM) and/or daratumumab, or CAR T-cells for 24 hours. BMMNC samples contained sufficient numbers of functional effector cells to induce antibody-mediated plasma cell lysis. At the end of treatment, after addition of flow-count fluorospheres (Beckman Coulter), adherent cells were detached with Accutase, blocked with human immunoglobulin (100 μg/mL, Sanquin), and stained for CD38, CD138, CD45 (Beckman Coulter) and live/dead cell marker (LIVE/DEAD Fixable Near-111; Life Technologies) to determine absolute numbers of viable MM cells using flow cytometry. The percentage lysis was then calculated using the following formula: % lysis cells=1−absolute number of viable CD138^+ CD38^+ CD45^dim MM cells in treated wells/mean absolute number of viable CD138^+ CD38^+ CD45^dim MM cells in untreated wells×100%."}, "UM9 MM tumors": {"tested_on": "UM9 MM tumors", "assay": "In vivo efficacy in humanized xenograft RAG2-/-γc-/- model", "design": "species or system mice", "experimental": "In vivo efficacy of FL118: The in vivo efficacy of FL118 was studied in a xenograft RAG2^−/−γc^−/− marine model in which human MM cells are grown in a humanized BM like microenvironment generated by subcutaneous inoculation of MSC coated Hybrid scaffolds (4 scaffolds per mice) as described elsewhere (Groen R W, et al. Blood 2012,120:e9-e16). 24 hours before tumor inoculation (UM9; 5×10^5 cells/scaffold) mice were pre-conditioned with 18 mg/kg Busilvex. One week after inoculation, when there was visible tumor growth in all scaffolds by BLI, mice were randomly divided in four groups which were treated as follows: (1) vehicle control (n=3); (2) 0.05 mg/kg FL118 (n=4); (3) 0.1 mg/kg FL118 (n=4); (4) 0.2 mg/kg FL118 (n=4). FL118 or vehicle was administrated i.v. daily for five times. Tumor growth was monitored by weekly BLI measurements as previously described (Groen R W, et al. Blood 2012,120:e9-e16). All animal experiments were conducted for animal experimentation and were in compliance with the Dutch Animal Experimentation Act."}, "[2]": {"tested_on": "survivin, Mcl-1, XIAP and cIAP2", "conditions": "cited from earlier work"}, "[3]": {"assay": "Storage and heat stability of FL118", "assay_type": "physicochemical"}, "[4]": {"assay": "X-ray powder diffractometer (XRPD) crystal versus amorphous status", "assay_type": "physicochemical", "experimental": "Crystal versus amorphous status analyses of FL118 versus the formulated FL118 product using X-ray powder diffractometer: The crystal or amorphous status of each formulated FL118-a type of CD complex powder is determined using X-ray powder diffractometer (XRPD). Specifically, about 5 mg samples of each formulated FL118-a type of CD complex powder are spread onto the center of Si-substrate (samples area will be 1 cm in diameter) for XRPD testing. Laboratory XRPD patterns for samples will be collected at 25° C. The diffraction data will be collected over the angular range of 2θ=3°-40° with a step size of 2θ=0.02° and accounting time of 0.12 s/step."}, "topoisomerase I (Top1)": {"biological_target": "topoisomerase I (Top1) (Homo sapiens, UniProt P11387)", "sequence (P11387 whole entry, species assumed)": "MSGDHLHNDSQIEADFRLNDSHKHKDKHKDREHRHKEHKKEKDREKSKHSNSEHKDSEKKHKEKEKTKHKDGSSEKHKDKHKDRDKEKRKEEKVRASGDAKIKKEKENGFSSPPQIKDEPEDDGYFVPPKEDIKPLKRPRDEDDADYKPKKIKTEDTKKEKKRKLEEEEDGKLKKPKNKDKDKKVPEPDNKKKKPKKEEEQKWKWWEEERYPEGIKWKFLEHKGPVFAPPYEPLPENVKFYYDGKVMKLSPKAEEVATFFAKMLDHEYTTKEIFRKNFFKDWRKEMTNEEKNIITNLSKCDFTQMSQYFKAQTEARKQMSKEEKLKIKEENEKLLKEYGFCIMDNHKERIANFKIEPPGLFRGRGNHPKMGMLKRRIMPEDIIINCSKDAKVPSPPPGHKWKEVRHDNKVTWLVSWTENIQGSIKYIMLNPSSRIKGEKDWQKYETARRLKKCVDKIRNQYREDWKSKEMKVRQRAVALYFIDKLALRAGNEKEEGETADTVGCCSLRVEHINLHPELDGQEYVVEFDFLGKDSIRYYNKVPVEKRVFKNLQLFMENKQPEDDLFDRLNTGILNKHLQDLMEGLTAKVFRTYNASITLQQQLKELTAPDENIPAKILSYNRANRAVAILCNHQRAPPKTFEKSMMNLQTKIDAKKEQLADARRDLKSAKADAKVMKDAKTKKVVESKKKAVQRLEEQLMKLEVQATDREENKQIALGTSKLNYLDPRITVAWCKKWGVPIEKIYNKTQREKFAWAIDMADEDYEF", "conditions": "cited from earlier work"}, "[5]": {"conditions": "primary BMMNC samples, 48 hours"}, "[6]": {"conditions": "0.2 mg/kg i.v. daily for five times"}}}
{"smiles": "CC[C@@]1(O)C(=O)OCc2c1cc1n(c2=O)Cc2cc3cc4c(cc3nc2-1)OCO4", "note": "[FL118]", "values": [{"measurement": "inhibitory effects on control genes", "setting": "[1]", "value": "no inhibitory effects"}, {"measurement": "BMMSC protective effect against CTL 3AB11 lysis", "setting": "UM9 cell line; 24 hours", "value": "completely abrogated"}, {"measurement": "combination effect with CTL 3AB11", "setting": "UM9 cell line; Chou-Talalay", "value": "synergistic fashion"}, {"measurement": "combination index (CI) values, FL118 and CAR T-cells", "setting": "UM9 cell line; Chou-Talalay, especially in the presence of BMMSCs", "value": "below 1"}, {"measurement": "BMMSC-mediated protection against CAR T-cells", "setting": "UM9 cell line; combined with CAR T-cells, even at doses as low as 3 nM", "value": "effectively modulated"}, {"measurement": "lysis of MM-cells by FL118 alone", "setting": "UM9 cell line; regardless of the presence of BMMSCs, 24 hours", "value": "dose-dependent lysis"}, {"measurement": "combination of FL118 with CAR T-cells, observed versus expected lysis", "setting": "primary MM cells; 10 nM FL118, BLISS model", "value": "synergistic fashion"}, {"measurement": "patient MM cell lysis by CAR T-cells in the presence of BMMSCs", "setting": "primary MM cells; 10 nM FL118, E:T ratio 1:1, 24 hours", "value": "significantly enhanced"}, {"measurement": "anti-MM activity of FL118 alone", "setting": "primary MM cells; 10 nM, 24 hours, patient-derived MM cells", "value": "no/minimal anti-MM activity"}, {"measurement": "BMMSC-mediated protection against daratumumab-induced MM cell lysis", "setting": "primary MM cells; 100 nM FL118, 10 μg/mL daratumumab, 24 hours", "value": "abrogated"}, {"measurement": "efficacy in RR patient samples compared to ND patient samples", "setting": "primary MM cells; 100 nmol/L, 24 hours, 12 RR and 15 ND", "value": "significantly more effective"}, {"measurement": "FL118-induced MM cell lysis", "setting": "primary MM cells; 100 nmol/L, 24 hours, in 15 of 27 patient samples", "value": "≥ 20", "unit": "%"}, {"measurement": "interaction between FL118 and daratumumab in the presence of BMMSCs", "setting": "primary MM cells; observed versus expected lysis", "value": "synergistic"}, {"measurement": "combination effect with bortezomib (Bliss model)", "setting": "primary MM cells; [5]", "value": "additive effects"}, {"measurement": "combination effect with melphalan (Bliss model)", "setting": "primary MM cells; [5]", "value": "synergistic effects"}, {"measurement": "delay of tumor outgrowth", "setting": "UM9 MM tumors; [6]", "value": "up to 5 weeks"}, {"measurement": "effect on initial tumor volume", "setting": "UM9 MM tumors; [6]", "value": "reduce the initial tumor volume"}, {"measurement": "in vivo anti-MM activity", "setting": "UM9 MM tumors; 0.05, 0.1, 0.2 mg/kg i.v. daily for five times", "value": "dose-dependent"}, {"measurement": "inhibition of expression of survivin, Mcl-1, XIAP and cIAP2", "setting": "[2]", "value": "selectively inhibits"}, {"measurement": "stability at high temperature", "setting": "[3]; 60-80° C., spray-dry process, at least a period of time", "value": "without any issues"}, {"measurement": "storage stability", "setting": "[3]; before and/or after formulation, room temperature or 4° C.", "value": "highly stable"}, {"measurement": "crystal versus amorphous status", "setting": "[4]", "value": "crystal"}, {"measurement": "combination with anti-DR5 antibody Drozitumab, cell lysis", "setting": "MM1.s cells; 24 hours, PBMC effectors", "value": "great synergistic activity"}, {"measurement": "microenvironment-induced immune resistance, combination with Drozitumab", "setting": "MM1.s cells; presence of BMMSCs", "value": "reversed"}, {"measurement": "concentration level for effects on Top1 activity", "setting": "topoisomerase I (Top1)", "value": "μM levels"}]}
